Source: US20240366571A1, “MODULATORS OF SK4 POTASSIUM CHANNEL AND USES THEREOF” (Ramot at Tel-Aviv University Ltd., priority 2022, published 2024)
Like-named read-outs stand apart in the source and are kept apart here.

Key:
SK4 channel mutants [1] = target: T1, SK4 channel mutants (Homo sapiens, UniProt O15554, R191A); assay: Whole-cell patch-clamp of SK4 channel mutants; format: cell-based; conditions: read-out: inhibition of SK4 mutant R191A current
T1 construct: expressed in transfected cells; host or cells: CHO cells
Protocol: (§1) Constructs: For CHO cell transfection, the following were cloned: human SK1, rat SK2, human SK3, and rat calmodulin into the pcDNA3 vector, human SK4 into pEGFP-C1 vector, and PIP4,5-kinase into an IRES-dsRed plasmid. The mutations were introduced using the PCR-based QuikChange™ site-directed mutagenesis (Stratagene®) and were verified by full sequencing of the entire plasmid vector.
(§2) Whole-cell patch-clamp recording: Voltage-clamp recordings were performed using the whole-cell configuration of the patch-clamp technique. Signals were amplified using an […] patch-clamp amplifier (Molecular Devices), sampled at 5 kHz and filtered at 2.4 kHz via a four pole Bessel low pass filter. Data were acquired using pClamp™ 10.5 software in conjunction with an Axon™ DigiData® 1440A interface (Molecular Devices). The patch pipettes were pulled from borosilicate glass (Harvard Apparatus) with a resistance of 3-5 megaohms (MΩ). The intracellular pipette solution contained 130 mM KCl, 5 mM EGTA, 10 mM HEPES, pH 7.3 (adjusted with KOH), and CaCl2 calculated for a final concentration of 1 μM free-Ca^2+, by MAXCHELATOR (WEBMAXC STANDARD) software, with sucrose added to adjust osmolarity to 290 mosM. The external solution (310 mosM) contained 140 mM NaCl, 4 mM KCl, 1.8 mM CaCl2, 1.2 mM MgCl2, 11 mM glucose, and 5.5 mM HEPES adjusted with NaOH to pH 7.3. CHO cells were held at −90 millivolt (mV) and SK4 K^+ currents were activated using a voltage ramp protocol from −100 mV to +60 mV for 150 milliseconds. Electrophysiological data analysis was performed using the Clampfit program (pClamp™ 10.5; Molecular Devices).
(§3) To examine ex-vivo the interactions between BA6b9 and the simulated residues seen in FIG. 5B, residues that are in atomic proximity and are expected to interact with BA6b9 were mutated. Such mutated residues were, for example, R191 and H192 of linker S4-S5, M72 and M76 of the CaM linker as well as L19, E22, Y179, S181, A184, Q187 and R189, which are more distant from BA6b9.

SK4 channel mutants [2] = target: T2, SK4 channel mutants (Homo sapiens, UniProt O15554, H192A); assay: Whole-cell patch-clamp of SK4 channel mutants; format: cell-based; conditions: read-out: inhibition of SK4 mutant H192A current
T2 construct: expressed in transfected cells; host or cells: CHO cells
Protocol: as §1, §2, §3

SK4 channel mutants [3] = target: T3, SK4 channel mutants (Homo sapiens, UniProt O15554, L19W); assay: Whole-cell patch-clamp of SK4 channel mutants; format: cell-based; conditions: read-out: inhibition of SK4 mutant L19W current
T3 construct: expressed in transfected cells; host or cells: CHO cells
Protocol: as §1, §2, §3

[4] = target: T4, WT SK4 channel co-transfected with CaM (Homo sapiens, UniProt O15554); assay: Whole-cell patch-clamp of WT SK4 channel co-transfected with WT CaM or CaM mutants; format: cell-based
T4 construct: expressed in transfected cells; host or cells: CHO cells
Protocol: as §1, §2, §3

[5] = tested on: isolated guinea pig hearts; assay: Langendorff perfused isolated guinea pig hearts; conditions: 10 μM
Protocol: Animals: Adult male Sprague-Dawley rats (n=56, 200-250 grams) and Guinea pigs (n=19, 400-700 grams) obtained from Envigo Laboratories (Jerusalem, Israel) were bred and grown in Ben-Gurion University of the Negev, Israel. Experiments in rats and guinea pigs were approved by the institutional ethics committee of Ben-Gurion University of the Negev, Israel (Protocol No. IL-24-05-2020(D) and were carried out in strict accordance with the Guide for the Care and Use of Laboratory Animals of the National Institutes of Health. The animals were kept under standardized conditions: 12:12 light: dark cycles at 20-24° C. and 30-70% relative humidity.
Perfused isolated hearts—Langendorff method: The isolated heart experiment setup was performed as described in Etzion et al., Am J Physiol Heart Circ Physiol (2008) 295, H1460-1469; and Mor et al., J Pharmacol Exp Ther (2013) 344, 59-67.]. Briefly, each animal was anesthetized with 2% isoflurane and an intraperitoneal (IP) injection of pentobarbital (60 mg/kg), followed by IP injection of Heparin (1000 U/kg). The heart was rapidly excised and placed into ice-cold Tyrode's buffer solution (consisted of 140 mM NaCl, 5.4 mM KCl, 0.5 mM MgCl2, 2.5 mM CaCl2, 0.39 mM NaH2PO4, 10 mM HEPES and 11 mM glucose, and titrated to pH 7.4 with NaOH). The aorta was cannulated and connected to a pre-heated (37° C.) and oxygenated perfusion system with Tyrode's solution while perfusion pressure was maintained at about 70 mmHg throughout the experiment. Prior to the experiment, the heart was left in Tyrode's solution to stabilize for 20 minutes for hemodynamic measurements, the left atrial appendage was excised, and a collapsed latex balloon was inserted into the left ventricle (LV) through the mitral valve. Once positioned, the balloon was filled with double distilled water reaching an end-diastolic pressure of 10-15 mmHg. Coronary perfusion pressure and LV pressure were recorded by a pressure amplifier (ETH-256C amplifier and B-100 probes, iWorx, NH, USA). Electrophysiological signals were recorded from the high right atrium (HRA) via a miniature quadripolar hook electrode (for simultaneous pacing and recording) and from the LV via a bipolar hook electrode. Electrical signals were filtered (1-2 kHz) and recorded by two voltage amplifiers (Model 3000, A-M Systems, Carlsberg, WA, USA). Signals were interfaced with a PC using an A/D converter (PCI-6024E, National Instruments, Austin TX, USA) and a custom-designed program developed with LabVIEW programing language (National Instruments, Austin, TX, USA) to control signal acquisition, data saving and off-line analysis. Measured physiological parameters during the experiment included perfusion flow (ml/minute) as a marker for coronary perfusion pressure, LV developed pressure, dP/dt±(representing the rate of rise of left ventricular pressure during isovolumetric contraction as a marker for LV contractility), heart rate, PR, and RR intervals. Tram-34 and BA6b9 were applied for a 20-minutes incubation period and physiological parameters were recorded.
Effective refractory period measurements: Using both custom-made quadripolar electrode inserted on the HRA and two bipolar electrodes (recording and pacing) on the LV, allowed measurement of the effective refractory period (ERP) at the atrial level (atrial effective refractory period, AERP), atrioventricular level (AVERP), and ventricular level (VERP). For ERP measurement, a programmed S1S2 stimulation protocol was performed using double diastolic threshold intensity. The protocol consisted of ten S1-S2 intervals of 150 milliseconds (ms) followed by an S1-S2 interval that was reduced by 1 ms each time, until pacing capture failed three consecutive times. AERP, AVERP, and VERP were measured and recorded prior and after exposure to the used inhibitor, either Tram-34 or BA6b9.

CCCCCCCn1c(=O)oc2ccccc21 [BA6b9, 3-heptylbenzo[d]oxazol-2(3H)-one]
inhibition at 20 µM (SK4 channel mutants [1]): 30%
inhibition at 20 µM (SK4 channel mutants [2]): 16%
inhibition at 20 µM (SK4 channel mutants [3]): 46%
modulation of WT SK4 co-transfected with CaM mutant M72A (representative trace) ([4]; 20 μM): not indicating modulation
inhibition at 20 µM ([4]; read-out: inhibition of WT SK4 co-transfected with CaM mutant M72A): 0%
inhibition at 20 µM ([4]; read-out: inhibition of WT SK4 co-transfected with CaM mutant M76A): 19%
inhibition at 20 µM ([4]; read-out: inhibition of WT SK4 co-transfected with WT CaM): 47%
AERP (effect) [5]: significantly prolonged
AVERP (effect) [5]: significantly prolonged
PR interval (effect) [5]: increasing PR interval
VERP (effect) [5]: significantly prolonged
action potential activation current (atrial and ventricular pacing thresholds) [5]: Neither Tram-34 nor BA6b9 affected
coronary flow (perfusion flow velocity) [5]: no effect
heart rate (effect) [5]: decreased heart rate
